According to patent US20230391845A1, “GLP-1, GIP AND GLUCAGON RECEPTOR TRIPLE AGONISTS” (priority 2020, published 2023):
*1 amine or outer side, *2 acyl side, *3 side chain or, on linkers, in order; H or OH if unused. Where a SMILES comes first, the peptide text is derived from it. Side-chain parts run from the residue outwards. [ ]: non-standard residue; d: D form. The star is where a group is joined. X1 = O=C(O)CCCCCCCCCCCCCCCCCCC(=O)NCC1CCC(C(=O)*)CC1; γGlu = O=C(O)[C@H](CCC(=O)[*:2])N[*:1]; εLys = N[C@@H](CCCCN[*:1])C(=O)[*:2]; Aib = CC(C)(N)C(=O)O

Experiments:
Type in all cases: cell-based
mouse GIP receptor = target: T1, mouse GIP receptor (Mus musculus, UniProt Q0P543); assay: In vitro functional potency (CRE luciferase; whole cells), mouse GIPR; conditions: BHK cells expressing mouse GIP receptor
T1 construct: expressed in transfected cells; host or cells: BHK cells (parent line BHKTS13) containing CRE luciferase
T1 sequence (Q0P543 19-460): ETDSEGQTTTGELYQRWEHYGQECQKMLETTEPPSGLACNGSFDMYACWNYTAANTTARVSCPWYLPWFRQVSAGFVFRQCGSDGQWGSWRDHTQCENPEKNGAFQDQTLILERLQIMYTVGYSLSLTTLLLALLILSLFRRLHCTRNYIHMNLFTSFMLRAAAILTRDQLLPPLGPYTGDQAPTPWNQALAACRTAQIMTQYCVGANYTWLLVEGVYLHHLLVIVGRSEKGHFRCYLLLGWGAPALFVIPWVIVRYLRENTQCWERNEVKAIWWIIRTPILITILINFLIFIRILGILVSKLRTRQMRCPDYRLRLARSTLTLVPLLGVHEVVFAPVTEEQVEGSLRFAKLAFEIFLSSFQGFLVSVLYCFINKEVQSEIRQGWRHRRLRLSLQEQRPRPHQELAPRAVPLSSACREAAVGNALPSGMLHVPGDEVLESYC
Method: (§1) The purpose of this example is to test the functional activity, or potency, of the compounds in vitro at the human and mouse GLP-1, GIP, and Gcg receptors. The in vitro functional potency is the measure of target receptor activation in a whole cell assay.
(§2) In vitro functional potency was determined by measuring the response of the target receptor in a reporter gene assay in individual cell lines. The assay was performed in stably transfected BHK cell lines that expresses one of the following G-protein coupled receptors: human GLP-1 receptor, human GIP receptor, human Gcg receptor, mouse GLP-1 receptor, mouse GIP receptor, or mouse Gcg receptor; and where each cell line contains the DNA for the cAMP response element (CRE) coupled to a promoter and the gene for firefly luciferase (CRE luciferase). When the respective receptor is activated, it results in the production of cAMP, which in turn results in expression of the luciferase protein. […] The luminescence is measured as the readout for the assay. […]
(§3) The data from the microtiter plate reader was first regressed in an Excel in order to calculate the x-axis, log scale concentrations based on the individual test compound's stock concentration and the dilutions of the assay. […] A minimum of two replicates was measured for each sample. […]

mouse Gcg receptor = target: T2, mouse Gcg receptor (Mus musculus, UniProt Q61606); assay: In vitro functional potency (CRE luciferase; whole cells), mouse GcgR; conditions: BHK cells expressing mouse Gcg receptor
T2 construct: expressed in transfected cells; host or cells: BHK cells (parent line BHKTS13) containing CRE luciferase
T2 sequence (Q61606 27-485): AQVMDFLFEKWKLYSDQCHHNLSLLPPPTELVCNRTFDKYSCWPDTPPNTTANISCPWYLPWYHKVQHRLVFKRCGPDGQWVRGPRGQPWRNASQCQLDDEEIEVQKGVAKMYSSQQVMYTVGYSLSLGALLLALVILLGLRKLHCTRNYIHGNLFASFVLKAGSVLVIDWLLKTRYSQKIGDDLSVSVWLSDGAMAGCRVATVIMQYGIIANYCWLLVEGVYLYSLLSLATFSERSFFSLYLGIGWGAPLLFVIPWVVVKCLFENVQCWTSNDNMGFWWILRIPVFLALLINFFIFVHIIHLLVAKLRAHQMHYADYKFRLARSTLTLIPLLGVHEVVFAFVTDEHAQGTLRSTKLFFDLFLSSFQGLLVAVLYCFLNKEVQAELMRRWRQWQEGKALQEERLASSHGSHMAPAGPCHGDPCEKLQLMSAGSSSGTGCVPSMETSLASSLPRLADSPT
Method: as §1, §2, §3

mouse GLP-1 receptor = target: T3, mouse GLP-1 receptor (Mus musculus, UniProt O35659); assay: In vitro functional potency (CRE luciferase; whole cells), mouse GLP-1R; conditions: BHK cells expressing mouse GLP-1 receptor
T3 construct: expressed in transfected cells; host or cells: BHK cells (parent line BHKTS13) containing CRE luciferase
T3 sequence (O35659 22-463): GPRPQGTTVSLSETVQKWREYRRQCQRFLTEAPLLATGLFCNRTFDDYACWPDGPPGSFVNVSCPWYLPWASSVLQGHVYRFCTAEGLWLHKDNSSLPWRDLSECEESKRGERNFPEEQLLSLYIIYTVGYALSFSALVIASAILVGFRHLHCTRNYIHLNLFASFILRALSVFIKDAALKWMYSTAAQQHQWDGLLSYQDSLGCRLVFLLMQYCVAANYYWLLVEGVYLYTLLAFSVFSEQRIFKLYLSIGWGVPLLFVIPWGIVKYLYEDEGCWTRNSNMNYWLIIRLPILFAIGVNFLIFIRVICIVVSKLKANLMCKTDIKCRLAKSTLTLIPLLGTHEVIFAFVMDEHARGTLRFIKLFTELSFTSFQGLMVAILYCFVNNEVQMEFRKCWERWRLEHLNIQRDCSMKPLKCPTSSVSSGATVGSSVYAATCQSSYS
Method: as §1, §2, §3

## CC[C@H](C)[C@H](NC(=O)[C@H](CO)NC(=O)[C@H](Cc1ccc(O)cc1)NC(=O)[C@H](CC(=O)O)NC(=O)[C@H](CO)NC(=O)[C@@H](NC(=O)[C@H](Cc1ccccc1)NC(=O)[C@@H](NC(=O)CNC(=O)[C@H](Cc1c[nH]cn1)NC(=O)C(C)(C)NC(=O)[C@@H](N)Cc1c[nH]cn1)[C@@H](C)O)[C@@H](C)O)C(=O)N[C@@H](Cc1ccc(O)cc1)C(=O)N[C@@H](CC(C)C)C(=O)N[C@@H](CCC(=O)O)C(=O)N[C@@H](CCCCNC(=O)[C@@H](N)CCCCNC(=O)[C@@H](N)CCCCNC(=O)CC[C@H](NC(=O)C1CCC(CNC(=O)CCCCCCCCCCCCCCCCCCC(=O)O)CC1)C(=O)O)C(=O)N[C@@H](CCC(N)=O)C(=O)N[C@@H](C)C(=O)N[C@@H](C)C(=O)NC(C)(C)C(=O)N[C@@H](CCC(=O)O)C(=O)N[C@@H](Cc1ccccc1)C(=O)N[C@H](C(=O)N[C@@H](CCC(N)=O)C(=O)N[C@@H](Cc1c[nH]c2ccccc12)C(=O)N[C@@H](CC(C)C)C(=O)N[C@@H](CC(C)C)C(=O)N[C@@H](CCC(=O)O)C(=O)NCC(=O)NCC(=O)N1CCC[C@H]1C(=O)N[C@@H](CO)C(=O)N[C@@H](CO)C(=O)NCC(=O)N[C@@H](C)C(=O)N1CCC[C@H]1C(=O)N1CCC[C@H]1C(=O)N1CCC[C@H]1C(=O)N[C@@H](CO)C(N)=O)C(C)C (stereo partly drawn) [Compound No. 21] (H-H[Aib]HGTFTSDYSIYLEK([εLys-εLys-γGlu-X1])QAA[Aib]EFVQWLLEGGPSSGAPPPS-NH2; N-terminus assumed)
Mouse GIP receptor
  mGIPR CRE Luc EC50 (pM): similar
Mouse Gcg receptor
  mGcgR CRE Luc EC50 (pM): reduced
Mouse GLP-1 receptor
  mGLP-1R CRE Luc EC50 (pM): similar
